From paper PMC8848031 (Saudi Journal of Biological Sciences, 2021)
“And” between values parts separate entries of the source, which are not always exact repeats. Equal entries are not always repeated. One block for each compound: values may come before it.

Key:
[1] = molecular target: Saccharomyces cerevisiae α-glucosidase (E.C 3.2.1.20) (Saccharomyces cerevisiae, UniProt P53341); experiment: Alpha-glucosidase inhibition assay; format: biochemical; settings: Alpha-glucosidase inhibition IC50, isolated compounds; acarbose positive control
[2] = molecular target: alpha-glucosidase (Saccharomyces cerevisiae, UniProt P53341); experiment: Inhibitory type assay of BM3 on alpha-glucosidase; format: biochemical
[3] = test system: alpha-glucosidase; settings: kinetic studies; ref Adisakwattana et al. (2009); cited from earlier work
[4] = test system: alpha-glucosidase; settings: ref Wu et al., 2017; cited from earlier work
[5] = test system: pancreatic lipase enzyme; settings: extracted from T. stans leaves; ref [28]; cited from earlier work

Chain of alpha-glucosidase (Saccharomyces cerevisiae, UniProt P53341) (P53341 whole entry): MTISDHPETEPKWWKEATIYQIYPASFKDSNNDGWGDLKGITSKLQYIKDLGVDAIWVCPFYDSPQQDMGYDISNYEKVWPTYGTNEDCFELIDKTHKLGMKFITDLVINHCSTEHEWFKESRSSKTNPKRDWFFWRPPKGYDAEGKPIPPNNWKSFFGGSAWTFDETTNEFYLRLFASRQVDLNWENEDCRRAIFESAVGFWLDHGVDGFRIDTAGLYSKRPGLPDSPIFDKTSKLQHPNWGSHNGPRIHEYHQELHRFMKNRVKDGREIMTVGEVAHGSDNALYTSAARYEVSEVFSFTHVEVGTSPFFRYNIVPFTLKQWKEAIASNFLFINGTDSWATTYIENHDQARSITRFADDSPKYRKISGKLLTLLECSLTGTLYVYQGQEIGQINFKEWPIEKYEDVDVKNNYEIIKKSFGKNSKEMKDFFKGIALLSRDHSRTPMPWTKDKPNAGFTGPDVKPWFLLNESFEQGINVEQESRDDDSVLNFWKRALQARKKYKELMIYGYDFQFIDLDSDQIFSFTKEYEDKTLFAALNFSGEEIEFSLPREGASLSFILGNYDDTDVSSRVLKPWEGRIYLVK
Chain of Saccharomyces cerevisiae α-glucosidase (E.C 3.2.1.20) (P53341 whole entry): as above

- IC50 [1]: 35.6 µM and 36.8 µM
SMILES: O=c1c(O[C@@H]2O[C@H](CO)[C@@H](O)[C@H](O)[C@H]2O)c(-c2ccc(O)c(O)c2)oc2cc(O)cc(O)c12 [NC2, isoquercitrin]

- IC50 [1]: 39.2 ± 0.6 µM
SMILES: C[C@H]1[C@H](C)CC[C@]2(C(=O)O)CC[C@]3(C)C(=CC[C@@H]4[C@@]5(C)CC[C@H](O)C(C)(C)[C@@H]5CC[C@]43C)[C@H]12 [TS1, ursolic acid]
- inhibition of alpha-glucosidase [4]: strong inhibition

The next lines start with the compound.

SMILES: COC(=O)c1cc(O)c(O)c(O)c1 [BM2, methyl gallate]
- IC50 [1]: 71 ± 2.1 µM

SMILES: COC(=O)c1cc(O)c(O)c(OC(=O)c2cc(O)c(O)c(O)c2)c1 [BM3, 3-O-galloylgallic acid methyl ester]
- IC50 [1]: 18.2 ± 0.8 µM
- Ki [2]: 31.2 µM
- inhibition type ([2]; Lineweaver-Burk plots, pNPG 1, 2, 4 mM): competitive
- Vmax ([2]; no effect of increasing BM3 concentration): 0.049 µM/min

SMILES: O=C(O)/C=C/c1ccc(O)c(O)c1 [NC3, caffeic acid]
- inhibition type [3]: non-competitive

SMILES: COc1cc(-c2cc(=O)c3c(O)cc(O)cc3o2)ccc1O [TS3, chrysoeriol]
- inhibition of pancreatic lipase enzyme [5]: strong inhibition
